From patent US20110092476A1, “Bicycloheteroaryl compounds as P2X7 modulators and uses thereof” (Renovis, Inc., priority 2006, published 2011)
Like-named read-outs stand apart in the source and are kept apart here.

Legend:
P2X7 receptor = target: T1, P2X7 receptor (Homo sapiens, UniProt Q99572); assay: IL-1β release assay in differentiated THP-1 cells stimulated with BzATP (Example 9); format: cell-based; conditions: BzATP 250 uM; for inhibition at 0.3 µM / inhibition at 0.1 µM: differentiated THP-1 cells, read-out: IL-1β % Inhib. @ 0.3 or 0.1 uM; for inhibition at 0.1 µM: 0.1 μM compound (symbols *)
T1 construct: host or cells: THP-1 cells differentiated with LPS and IFN-γ
T1 sequence (Q99572 1-595): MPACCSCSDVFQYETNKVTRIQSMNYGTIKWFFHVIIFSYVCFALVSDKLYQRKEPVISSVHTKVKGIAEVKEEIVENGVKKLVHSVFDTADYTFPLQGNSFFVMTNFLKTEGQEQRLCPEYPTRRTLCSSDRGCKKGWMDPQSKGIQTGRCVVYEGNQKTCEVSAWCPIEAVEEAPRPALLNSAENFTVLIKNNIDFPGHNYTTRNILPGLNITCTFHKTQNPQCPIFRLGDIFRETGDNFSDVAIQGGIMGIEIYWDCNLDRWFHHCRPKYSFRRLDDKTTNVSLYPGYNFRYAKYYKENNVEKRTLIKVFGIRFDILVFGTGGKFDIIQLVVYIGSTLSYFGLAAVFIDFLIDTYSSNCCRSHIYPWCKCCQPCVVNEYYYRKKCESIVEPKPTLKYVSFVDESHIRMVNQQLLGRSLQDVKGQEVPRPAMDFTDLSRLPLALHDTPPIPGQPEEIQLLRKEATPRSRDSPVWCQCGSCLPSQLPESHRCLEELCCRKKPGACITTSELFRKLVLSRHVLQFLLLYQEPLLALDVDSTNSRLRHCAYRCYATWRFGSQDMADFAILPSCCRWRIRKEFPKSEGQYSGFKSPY
Summary of the method: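 IC50 derived by four-parameter logistic fit of percent inhibition of IL-1β release (ELISA, background-adjusted). Release triggered by 45 min BzATP at 250 uM final after 30 min compound pretreatment of THP-1 cells previously differentiated 16 h (LPS, IFN-γ, 100 ng/mL each) and re-primed 2 h with LPS.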

[1] = Determination of aqueous (kinetic) solubility; format: physicochemical; conditions: aqueous buffer, kinetic from dmso stock, buffer pH 7.4
Protocol: The mixture was vortexed for 1 hour and equilibrated overnight at room temperature. The mixture was filtered through a saturated filter and the filtrate was analyzed by LC/MS/MS.
For the purpose of Table 5, solubility of each compound is expressed as follows: […]

NC(=O)Cn1ccc2c(NC(=O)Cc3ccc(Cl)c(C(F)(F)F)c3)cccc2c1=O [Compound 249, 2-{5-[2-(4-Chloro-3-trifluoromethyl-phenyl)-acetylamino]-1-oxo-1H-isoquinolin-2-yl}-acetamide]
inhibition at 0.3 µM (P2X7 receptor; 0.3 μM compound, "+" symbols): > 76%
solubility [1]: < 25 µM

Cc1ccc2c(=O)n([C@H](C)CO)ccc2c1NC(=O)Cc1cccc(C(F)(F)F)c1F [Compound 395]
inhibition at 0.3 µM (P2X7 receptor; 0.3 μM compound, "+" symbols): > 76%
IC50 (P2X7 receptor; THP-1 cells, IL-1β by ELISA): 9.44 nM
solubility [1]: > 75 µM

C[C@H](C(N)=O)n1ccc2c(NC(=O)[C@H](C)c3ccc(Cl)cc3)cccc2c1=O [Compound 262]
inhibition at 0.3 µM (P2X7 receptor; 0.3 μM compound, "+" symbols): > 76%
solubility [1]: > 75 µM

CC(C(=O)Nc1cccc2c(=O)n([C@H](C)C(N)=O)ccc12)c1cccc(C(F)(F)F)c1F (some centres unmarked) [Compound 337]
inhibition at 0.3 µM (P2X7 receptor; 0.3 μM compound, "+" symbols): > 76%
solubility [1]: < 25 µM

C[C@@H](C(=O)Nc1cccc2c(=O)n([C@@H](C)C(N)=O)ccc12)c1ccc(Cl)cc1 [Compound 266]
inhibition at 0.3 µM (P2X7 receptor; 0.3 μM compound, "+" symbols): > 76%
solubility [1]: > 75 µM

O=C(Cc1ccc(Cl)cc1Cl)Nc1cccc2c(=O)n(CCO)ccc12 [Compound 69]
inhibition at 0.3 µM (P2X7 receptor; 0.3 μM compound (symbols +)): > 76%
solubility [1]: < 25 µM

C[C@H](C(N)=O)n1ccc2c(NC(=O)Cc3ccc(F)c(C(F)(F)F)c3)cccc2c1=O [Compound 304]
inhibition at 0.3 µM (P2X7 receptor; 0.3 μM compound, "+" symbols): > 76%
solubility [1]: < 25 µM

COc1ccccc1CCC(=O)Nc1cccc2c(=O)n(C(C)CO)ccc12 (centres unmarked) [Compound 104]
inhibition at 0.1 µM (P2X7 receptor): 0 to 25%

CC(O)Cn1ccc2c(NC(=O)c3ccc(-c4ccccc4)o3)cccc2c1=O (centres unmarked) [Compound 127]
inhibition at 0.1 µM (P2X7 receptor): 0 to 25%

O=C(Cc1ccc(F)cc1)Nc1cccc2c(=O)n(CCO)ccc12 [Compound 73]
inhibition at 0.3 µM (P2X7 receptor; 0.3 μM compound (symbols +)): 26 to 50%

CC(C(=O)Nc1cccc2c(=O)n([C@@H](C)C(N)=O)ccc12)c1cccc(C(F)(F)F)c1F (some centres unmarked) [Compound 355]
inhibition at 0.3 µM (P2X7 receptor; 0.3 μM compound, "+" symbols): > 76%

CCOc1ccc(C(=O)Nc2cccc3c(=O)n(CC4(O)CCCCC4)ccc23)cc1 [Compound 21]
inhibition at 0.1 µM (P2X7 receptor): 0 to 25%

C[C@H](C(N)=O)n1ccc2c(NC(=O)Cc3ccc(Cl)cc3F)c(Cl)ccc2c1=O [Compound 343]
inhibition at 0.3 µM (P2X7 receptor; 0.3 μM compound, "+" symbols): 26 to 50%

CNC(=O)[C@@H](C(C)C)n1ccc2c(NC(=O)[C@H](C)c3ccc(Cl)cc3)cccc2c1=O [Compound 277]
inhibition at 0.3 µM (P2X7 receptor; 0.3 μM compound, "+" symbols): > 76%

C[C@@H](C(=O)Nc1cccc2c(=O)n([C@@H](C)CO)ccc12)c1ccc(Cl)c(Cl)c1 [Compound 317]
inhibition at 0.3 µM (P2X7 receptor; 0.3 μM compound, "+" symbols): > 76%

O=C(Cc1ccc(Cl)c(F)c1)Nc1cccc2c(=O)n(CCO)ccc12 [Compound 354]
inhibition at 0.3 µM (P2X7 receptor; 0.3 μM compound, "+" symbols): > 76%

CC(O)Cn1ccc2c(NC(=O)c3ccc(Cl)cc3Cl)cccc2c1=O (centres unmarked) [Compound 137]
inhibition at 0.1 µM (P2X7 receptor): 0 to 25%

C[C@H](C(N)=O)n1ccc2c(NC(=O)Cc3cccc(C#N)c3)cccc2c1=O [Compound 288]
inhibition at 0.3 µM (P2X7 receptor; 0.3 μM compound, "+" symbols): 0 to 25%

Cc1ccccc1CCC(=O)Nc1cccc2c(=O)n(C(C)CO)ccc12 (centres unmarked) [Compound 90]
inhibition at 0.1 µM (P2X7 receptor): 26 to 50%

C[C@H](CO)n1ccc2c(NC(=O)Cc3ccc(Cl)cc3F)cccc2c1=O [Compound 327]
inhibition at 0.3 µM (P2X7 receptor; 0.3 μM compound, "+" symbols): > 76%

CC(O)Cn1ccc2c(NC(=O)CCCc3ccccc3)cccc2c1=O (centres unmarked) [Compound 163]
inhibition at 0.1 µM (P2X7 receptor): 0 to 25%

CC(CO)n1ccc2c(NC(=O)c3cccc4ccccc34)cccc2c1=O (centres unmarked) [Compound 106]
inhibition at 0.1 µM (P2X7 receptor): 0 to 25%

C[C@@H](CO)n1ccc2c(NC(=O)Cc3ccc(Cl)c(Cl)c3)cccc2c1=O [Compound 332]
inhibition at 0.3 µM (P2X7 receptor; 0.3 μM compound, "+" symbols): > 76%

Cc1cc(C(=O)Nc2cccc3c(=O)n(CC4(O)CCCCC4)ccc23)ccc1Cl [Compound 17]
inhibition at 0.3 µM (P2X7 receptor; 0.3 μM compound (symbols +)): 0 to 25%
